Results on 16 molecules are retold here after patent publication US20230093861A1, “RAPAMYCIN ANALOGS AS MTOR INHIBITORS” (Revolution Medicines, Inc., priority 2017, published 2023).

The subject of one assay is P-Akt (S473). The experiment in a line: Cell based AlphaLISA assay, inhibition of P-Akt (S473) (mTORC2 substrate phosphorylation) in MDA-MB-468 cells. The note with it: Homo sapiens, MDA-MB-468, 4 h, AlphaLISA, two to four hours at 37° C., read-out: pIC50 for Inhibition of mTORC1 and mTORC2 Substrate Phosphorylation, p-AKT 1/2/3 -(S473) (converted). Put shortly:
(§1)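 Readout is the Alpha signal for each phosphoprotein, measured in duplicate from cell lysates with a SureFire Ultra homogeneous assay. IC50 values derive from inhibitor concentration-response curves fitted by normalized regression against controls.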
On the technique in general: Alpha assays give light when donor and acceptor beads are brought close together.

The subject of the next assay is P-P70S6K (T389). As to the kind of experiment: Cell based AlphaLISA assay, inhibition of P-P70S6K (T389) (mTORC1 substrate phosphorylation) in MDA-MB-468 cells. The following applies: Homo sapiens, 4 h, AlphaLISA, two to four hours at 37° C., read-out: pIC50 for Inhibition of mTORC1 and mTORC2 Substrate Phosphorylation, P-P70S6K-(T389) (converted). Put shortly:
as §1

A further assay relates to P-4E-BP1 (T37/46). As to the kind of experiment: Cell based AlphaLISA assay, inhibition of P-4E-BP1 (T37/46) (mTORC1 substrate phosphorylation) in MDA-MB-468 cells. The note with it: Homo sapiens, MDA-MB-468, 4 h, AlphaLISA, two to four hours at 37° C., read-out: pIC50 for Inhibition of mTORC1 and mTORC2 Substrate Phosphorylation, P-4E-BP1-(T37/46) (converted). The method, boiled down:
as §1

Take `CCO[C@@H]1C[C@@H]([C@H](C)C[C@@H]2CC[C@H](n3cc(CCCC(=O)NCCOCCOCCOCCC(=O)NCCOCCOCCC(=O)NCCCCn4nc(-c5cc6cc(O)ccc6[nH]5)c5c(N)ncnc54)nn3)[C@H](OC)C2)OC(=O)[C@@H]2CCCCN2C(=O)C(=O)[C@]2(O)O[C@@H](CC[C@H]2C)C[C@H](OC)/C(C)=C/C=C/C=C/[C@@H](C)C[C@@H](C)C(=O)[C@H](OC)[C@H](O)/C(C)=C/[C@H]1C` [Example 166]: the IC50 with P-Akt (S473), with P-P70S6K (T389) and with P-4E-BP1 (T37/46) was over 1 µM throughout.

For the molecule `CCO[C@@H]1C[C@@H]([C@H](C)C[C@@H]2CC[C@H](n3cc(CCCC(=O)NCCOCCOCCOCCC(=O)NCCOCCOCCOCCC(=O)NCCCCn4nc(-c5ccc6oc(N)nc6c5)c5c(N)ncnc54)nn3)[C@H](OC)C2)OC(=O)[C@@H]2CCCCN2C(=O)C(=O)[C@]2(O)O[C@@H](CC[C@H]2C)C[C@H](OC)/C(C)=C/C=C/C=C/[C@@H](C)C[C@@H](C)C(=O)[C@H](OC)[C@H](O)/C(C)=C/[C@H]1C` [Example 167], the results for the IC50 in the assay on P-Akt (S473), in the assay with P-P70S6K (T389) and in the assay on P-4E-BP1 (T37/46) were 0.0316 to 1 µM, 0.001 to 0.01 µM and 0.0316 to 1 µM, respectively.

For `CCO[C@@H]1C[C@@H]([C@H](C)C[C@@H]2CC[C@H](n3cc(CCCC(=O)NCCOCCOCCOCCC(=O)NCCOCCOCCOCCC(=O)NCCCCn4nc(-c5cc6cc(O)ccc6[nH]5)c5c(N)ncnc54)nn3)[C@H](OC)C2)OC(=O)[C@@H]2CCCCN2C(=O)C(=O)[C@]2(O)O[C@@H](CC[C@H]2C)C[C@H](OC)/C(C)=C/C=C/C=C/[C@@H](C)C[C@@H](C)C(=O)[C@H](OC)[C@H](O)/C(C)=C/[C@H]1C` [Example 168], the IC50 with P-Akt (S473) is over 1 µM; with P-P70S6K (T389), 0.01 to 1 µM; in the assay on P-4E-BP1 (T37/46), 0.0316 to 1 µM.

For `CO/N=C1/C[C@@H]([C@H](C)C[C@@H]2CC[C@H](n3cc(CCCC(=O)NCCOCCOCCOCCC(=O)NCCOCCOCCC(=O)NCCCCn4nc(-c5ccc6oc(N)nc6c5)c5c(N)ncnc54)nn3)[C@H](OC)C2)OC(=O)[C@@H]2CCCCN2C(=O)C(=O)[C@]2(O)O[C@@H](CC[C@H]2C)C[C@H](OC)/C(C)=C/C=C/C=C/[C@@H](C)C[C@@H](C)C(=O)[C@H](OC)[C@H](O)/C(C)=C/[C@H]1C` [Example 169], the IC50 with P-Akt (S473) was over 1 µM; in the assay on P-P70S6K (T389), 0.01 to 1 µM; in the assay on P-4E-BP1 (T37/46) it was over 1 µM.

Regarding `CO/N=C1/C[C@@H]([C@H](C)C[C@@H]2CC[C@H](n3cc(CCCC(=O)NCCOCCOCCOCCC(=O)NCCOCCOCCC(=O)NCCCCn4nc(-c5cc6cc(O)ccc6[nH]5)c5c(N)ncnc54)nn3)[C@H](OC)C2)OC(=O)[C@@H]2CCCCN2C(=O)C(=O)[C@]2(O)O[C@@H](CC[C@H]2C)C[C@H](OC)/C(C)=C/C=C/C=C/[C@@H](C)C[C@@H](C)C(=O)[C@H](OC)[C@H](O)/C(C)=C/[C@H]1C` [Example 170], the IC50 is over 1 µM in the assay with P-Akt (S473), 0.01 to 1 µM in the assay on P-P70S6K (T389) and over 1 µM with P-4E-BP1 (T37/46).

As for `CO/N=C1/C[C@@H]([C@H](C)C[C@@H]2CC[C@H](n3cc(CCCC(=O)NCCOCCOCCOCCC(=O)NCCOCCOCCOCCC(=O)NCCCCn4nc(-c5ccc6oc(N)nc6c5)c5c(N)ncnc54)nn3)[C@H](OC)C2)OC(=O)[C@@H]2CCCCN2C(=O)C(=O)[C@]2(O)O[C@@H](CC[C@H]2C)C[C@H](OC)/C(C)=C/C=C/C=C/[C@@H](C)C[C@@H](C)C(=O)[C@H](OC)[C@H](O)/C(C)=C/[C@H]1C` [Example 171], the IC50 is over 1 µM with P-Akt (S473), 0.01 to 1 µM in the assay with P-P70S6K (T389) and 0.0316 to 1 µM in the assay on P-4E-BP1 (T37/46).

Turning to `CO/N=C1/C[C@@H]([C@H](C)C[C@@H]2CC[C@H](n3cc(CCCC(=O)NCCOCCOCCOCCC(=O)NCCOCCOCCOCCC(=O)NCCCCn4nc(-c5cc6cc(O)ccc6[nH]5)c5c(N)ncnc54)nn3)[C@H](OC)C2)OC(=O)[C@@H]2CCCCN2C(=O)C(=O)[C@]2(O)O[C@@H](CC[C@H]2C)C[C@H](OC)/C(C)=C/C=C/C=C/[C@@H](C)C[C@@H](C)C(=O)[C@H](OC)[C@H](O)/C(C)=C/[C@H]1C` [Example 172], the figures for the IC50 with P-Akt (S473), with P-P70S6K (T389) and with P-4E-BP1 (T37/46) were over 1 µM, 0.01 to 1 µM and over 1 µM, respectively.

For the molecule `CO[C@H]1C[C@@H]2CC[C@@H](C)[C@@](O)(O2)C(=O)C(=O)N2CCCC[C@H]2C(=O)O[C@H]([C@H](C)C[C@@H]2CC[C@H](n3cc(CCCC(=O)NCCOCCOCCOCCC(=O)NCCOCCOCCC(=O)NCCCCn4nc(-c5ccc6oc(N)nc6c5)c5c(N)ncnc54)nn3)[C@H](OC)C2)C/C(=N/OCc2ccccc2)[C@H](C)/C=C(\C)[C@@H](O)[C@@H](OC)C(=O)[C@H](C)C[C@H](C)/C=C/C=C/C=C/1C` [Example 173], the IC50 is over 1 µM with P-Akt (S473), 0.01 to 1 µM in the assay with P-P70S6K (T389) and over 1 µM in the assay with P-4E-BP1 (T37/46).

For the molecule `CO[C@H]1C[C@@H]2CC[C@@H](C)[C@@](O)(O2)C(=O)C(=O)N2CCCC[C@H]2C(=O)O[C@H]([C@H](C)C[C@@H]2CC[C@H](n3cc(CCCC(=O)NCCOCCOCCOCCC(=O)NCCOCCOCCOCCC(=O)NCCCCn4nc(-c5ccc6oc(N)nc6c5)c5c(N)ncnc54)nn3)[C@H](OC)C2)C/C(=N/OCc2ccccc2)[C@H](C)/C=C(\C)[C@@H](O)[C@@H](OC)C(=O)[C@H](C)C[C@H](C)/C=C/C=C/C=C/1C` [Example 174], the IC50 in the assay with P-Akt (S473) was over 1 µM; in the assay with P-P70S6K (T389), 0.01 to 1 µM; in the assay with P-4E-BP1 (T37/46), over 1 µM.

With `CO[C@H]1C[C@@H]2CC[C@@H](C)[C@@](O)(O2)C(=O)C(=O)N2CCCC[C@H]2C(=O)O[C@H]([C@H](C)C[C@@H]2CC[C@H](n3cc(CCCC(=O)NCCOCCOCCOCCC(=O)NCCOCCOCCOCCC(=O)NCCCCn4nc(-c5cc6cc(O)ccc6[nH]5)c5c(N)ncnc54)nn3)[C@H](OC)C2)C/C(=N/OCc2ccccc2)[C@H](C)/C=C(\C)[C@@H](O)[C@@H](OC)C(=O)[C@H](C)C[C@H](C)/C=C/C=C/C=C/1C` [Example 175], the IC50 in the assay with P-Akt (S473), in the assay with P-P70S6K (T389) and with P-4E-BP1 (T37/46) was over 1 µM in each case.

For the molecule `CO[C@H]1C[C@@H]2CC[C@@H](C)[C@@](O)(O2)C(=O)C(=O)N2CCCC[C@H]2C(=O)O[C@H]([C@H](C)C[C@@H]2CC[C@H](n3cc(CCCC(=O)NCCOCCOCCOCCC(=O)NCCOCCOCCC(=O)NCCCCn4nc(-c5ccc6oc(N)nc6c5)c5c(N)ncnc54)nn3)[C@H](OC)C2)C/C(=N/OC(C)(C)C)[C@H](C)/C=C(\C)[C@@H](O)[C@@H](OC)C(=O)[C@H](C)C[C@H](C)/C=C/C=C/C=C/1C` [Example 176], the IC50 in the assay on P-Akt (S473) is over 1 µM; in the assay with P-P70S6K (T389) it was 0.01 to 1 µM; in the assay with P-4E-BP1 (T37/46), over 1 µM.

For the molecule `CO[C@H]1C[C@@H]2CC[C@@H](C)[C@@](O)(O2)C(=O)C(=O)N2CCCC[C@H]2C(=O)O[C@H]([C@H](C)C[C@@H]2CC[C@H](n3cc(CCCC(=O)NCCOCCOCCOCCC(=O)NCCOCCOCCOCCC(=O)NCCCCn4nc(-c5ccc6oc(N)nc6c5)c5c(N)ncnc54)nn3)[C@H](OC)C2)C/C(=N/OC(C)(C)C)[C@H](C)/C=C(\C)[C@@H](O)[C@@H](OC)C(=O)[C@H](C)C[C@H](C)/C=C/C=C/C=C/1C` [Example 177], the figures for the IC50 in the assay on P-Akt (S473), in the assay on P-P70S6K (T389) and in the assay on P-4E-BP1 (T37/46) were over 1 µM, 0.01 to 1 µM and over 1 µM, respectively.

Take `CO[C@H]1C[C@@H]2CC[C@@H](C)[C@@](O)(O2)C(=O)C(=O)N2CCCC[C@H]2C(=O)O[C@H]([C@H](C)C[C@@H]2CC[C@H](n3cc(CCCC(=O)NCCOCCOCCOCCC(=O)NCCOCCOCCOCCC(=O)NCCCCn4nc(-c5cc6cc(O)ccc6[nH]5)c5c(N)ncnc54)nn3)[C@H](OC)C2)C/C(=N/OC(C)(C)C)[C@H](C)/C=C(\C)[C@@H](O)[C@@H](OC)C(=O)[C@H](C)C[C@H](C)/C=C/C=C/C=C/1C` [Example 178]: the figures for the IC50 with P-Akt (S473), with P-P70S6K (T389) and in the assay with P-4E-BP1 (T37/46) were over 1 µM, 0.01 to 1 µM and over 1 µM, respectively.

`CO[C@H]1C[C@@H]2CC[C@@H](C)[C@@](O)(O2)C(=O)C(=O)N2CCCC[C@H]2C(=O)O[C@H]([C@H](C)C[C@@H]2CC[C@H](n3cc(CCCC(=O)NCCOCCOCCOCCC(=O)NCCOCCOCCOCCC(=O)NCCCCn4nc(-c5cc6cc(O)ccc6[nH]5)c5c(N)ncnc54)nn3)[C@H](OC)C2)C[C@@H](OC)[C@H](C)/C=C(\C)[C@@H](O)[C@@H](OC)C(=O)[C@H](C)C[C@H](C)/C=C/C=C/C=C/1C` [Example 179]: the values for the IC50 with P-Akt (S473), in the assay on P-P70S6K (T389) and in the assay with P-4E-BP1 (T37/46) were over 1 µM, 0.001 to 0.01 µM and 0.0316 to 1 µM, respectively.

Regarding `CO[C@H]1C[C@@H]2CC[C@@H](C)[C@@](O)(O2)C(=O)C(=O)N2CCCC[C@H]2C(=O)O[C@H]([C@H](C)C[C@@H]2CC[C@H](n3cc(CCCC(=O)N(C)CCOCCOCCOCCC(=O)N(C)CCOCCOCCC(=O)N(C)CCCCn4nc(-c5ccc6oc(N)nc6c5)c5c(N)ncnc54)nn3)[C@H](OC)C2)CC(=O)[C@H](C)/C=C(\C)[C@@H](O)[C@@H](OC)C(=O)[C@H](C)C[C@H](C)/C=C/C=C/C=C/1C` [Example 180], the IC50 was over 1 µM in the assay with P-Akt (S473), 0.001 to 0.01 µM with P-P70S6K (T389) and over 1 µM with P-4E-BP1 (T37/46).

In the case of `CO[C@H]1C[C@@H]2CC[C@@H](C)[C@@](O)(O2)C(=O)C(=O)N2CCCC[C@H]2C(=O)O[C@H]([C@H](C)C[C@@H]2CC[C@H](n3cc(COC(=O)NCCOCCOCCC(=O)NCc4cnc(N5CCN(c6ncc(C(=O)NCCCCn7nc(-c8ccc9oc(N)nc9c8)c8c(N)ncnc87)cn6)CC5)nc4)nn3)[C@H](OC)C2)CC(=O)[C@H](C)/C=C(\C)[C@@H](O)[C@@H](OC)C(=O)[C@H](C)C[C@H](C)/C=C/C=C/C=C/1C` [Example 181], the values for the IC50 in the assay on P-Akt (S473), in the assay on P-P70S6K (T389) and in the assay with P-4E-BP1 (T37/46) were 0.00316 to 0.0316 µM, under 0.001 µM and under 0.00316 µM, respectively.
